The data set has as its system GENE-TOX genotoxicity assays, various organisms and cells. Briefly: GENE-TOX mutagenicity studies. Conditions: for call: Assay Type: In vivo carcinogenicity studies.
The mark [1] stands for this setting: Species/Cell Type: Drosophila melanogaster, Assay Type: Sex-linked recessive lethal gene mutation, Assay Code: SRL+, Evaluation Type: Evaluation A (Pre-1980).
[2] abbreviates: Species/Cell Type: Mammalian polychromatic erythrocytes, Assay Type: Micronucleus test, chromosome aberrations, Assay Code: MNTT, Evaluation Type: Evaluation B (Post-1980).
Where [3] appears, read: Species/Cell Type: Nonhuman, Assay Code: CCG+, Evaluation Type: Evaluation A (Pre-1980).
[4] abbreviates: Species/Cell Type: Bacillus subtilis (H17 vs M45), Assay Type: Rec-assay, spot test, DNA effects (bacterial DNA repair), Assay Code: REW-, Evaluation Type: Evaluation A (Pre-1980).
[5] abbreviates: Species/Cell Type: Salmonella typhimurium (one or more of the five standard strains: TA98, TA100, TA1535, TA1537, and TA1538), Assay Type: Histidine reverse gene mutation, Ames assay, Assay Code: SALT, Evaluation Type: Evaluation A (Pre-1980).
[6] abbreviates: Species/Cell Type: Chinese hamster lung (V79) cells, Assay Type: Forward gene mutation at the HPRT or ouabain locus, Assay Code: V79+, Evaluation Type: Evaluation A (Pre-1980).
The mark [7] stands for this setting: Species/Cell Type: Zea mays (corn), Assay Type: Gene mutation, Assay Code: ZEM+, Evaluation Type: Evaluation A (Pre-1980).
Setting [8] is: Species/Cell Type: Salmonella typhimurium (one or more of the five standard strains: TA98, TA100, TA1535, TA1537, and TA1538), Assay Type: Histidine reverse gene mutation, Ames assay, Assay Code: SAL+, Evaluation Type: Evaluation A (Pre-1980).
Setting [9] is: Species/Cell Type: Arabidopsis species, Assay Type: Gene mutation, Assay Code: ARM+, Evaluation Type: Evaluation A (Pre-1980).
[10] abbreviates: Species/Cell Type: Allium cepa, Assay Type: Chromosome aberrations, Assay Code: ALC+D, Dose Response: With dose response, Evaluation Type: Evaluation A (Pre-1980).

SMILES strings stand for the structures. Active and inactive are the calls of the source. No rule for the calls is given here.

Consider 19 molecules from PubChem BioAssay AID1259408 (Genetic Toxicology Data Bank (GENE-TOX), 2018).

With `BrCCBr`, the mutagenic call (Species/Cell Type: Aspergillus nidulans, Assay Type: Forward gene mutation, Assay Code: ASF+, Evaluation Type: Evaluation A (Pre-1980)) is “active; positive”; the mutagenic call (Species/Cell Type: Chinese hamster ovary (CHO) cells, Assay Type: Forward gene mutation at the HPRT locus, Assay Code: CHO+, Evaluation Type: Evaluation B (Post-1980)) is “active; positive”; the mutagenic call under setting [1] was “active; positive”; the mutagenic call (Species/Cell Type: Escherichia coli polA (W3119 vs P3478), Assay Type: Rec-assay, DNA effects (bacterial DNA repair), Assay Code: RE1+, Evaluation Type: Evaluation A (Pre-1980)) is “active; positive”; the mutagenic call (Species/Cell Type: Fischer rat embryo (RLV/1706) cells, Assay Type: Cell transformation, viral enhanced, Assay Code: CTR+, Evaluation Type: Evaluation A (Pre-1980)) is “active; positive”; the mutagenic call (Species/Cell Type: Human lymphocytes, Assay Type: Sister-chromatid exchange (SCE) in vitro, Assay Code: SCL+, Evaluation Type: Evaluation B (Post-1980)) is “active; positive”. The mutagenic call (Species/Cell Type: Human, Assay Type: Sister-chromatid exchange (SCE) in vitro, Assay Code: SC1+, Evaluation Type: Evaluation B (Post-1980)) was “active; positive”; the mutagenic call (Species/Cell Type: Human, Sex: Male, Assay Type: Sperm morphology, Assay Code: SPH+, Evaluation Type: Evaluation A (Pre-1980)) was “active; positive”; the mutagenic call under setting [2] was “no conclusion”; the mutagenic call (Species/Cell Type: Mouse germ cells, Sex: Male, Assay Type: Unscheduled DNA synthesis (UDS) in vivo, DNA effects, Assay Code: UDT-, Evaluation Type: Evaluation A (Pre-1980)) is “inactive; negative”; the mutagenic call (Species/Cell Type: Mouse lymphoma (L5178Y) cells, Assay Type: Forward gene mutation at the thymidine kinase (TK) locus, chromosome aberrations, Assay Code: L51+, Evaluation Type: Evaluation A (Pre-1980)) was “active; positive”; the mutagenic call (Species/Cell Type: Neurospora crassa, Assay Type: Forward gene mutation, Assay Code: NEF+, Evaluation Type: Evaluation A (Pre-1980)) is “active; positive”. Also, the mutagenic call (Species/Cell Type: Nonhuman, Assay Type: Sister-chromatid exchange (SCE) in vitro, Assay Code: SC2+D, Dose Response: With dose response, Evaluation Type: Evaluation B (Post-1980)) was “active; positive”; the mutagenic call (Species/Cell Type: Nonhuman, Assay Type: Sister-chromatid exchange (SCE) in vivo, Assay Code: SC3+, Evaluation Type: Evaluation B (Post-1980)) was “active; positive”; the mutagenic call (Species/Cell Type: Plant, Assay Type: Micronucleus test, chromosome aberrations, Assay Code: MNP+, Evaluation Type: Evaluation A (Pre-1980)) is “active; positive”; the mutagenic call (Species/Cell Type: Saccharomyces cerevisiae, Assay Type: Mitotic recombination or gene conversion, Assay Code: YEC+, Evaluation Type: Evaluation A (Pre-1980)) is “active; positive”; the mutagenic call (Species/Cell Type: Salmonella typhimurium, Assay Type: Forward and reverse gene mutation, body fluid assay, Assay Code: BFUT, Evaluation Type: Evaluation A (Pre-1980)) was “no conclusion”; the mutagenic call (Species/Cell Type: Salmonella typhimurium, Assay Type: Forward and reverse gene mutation, host-mediated assay, Assay Code: HMA+, Evaluation Type: Evaluation A (Pre-1980)) is “active; positive”. Moreover, the mutagenic call is “active; positive” (Species/Cell Type: Syrian hamster embryo (SA7/SHE) cells, Assay Type: Cell transformation, viral enhanced, Assay Code: CT7+, Evaluation Type: Evaluation A (Pre-1980)); “active; positive” (Species/Cell Type: Tradescantia species, Assay Type: Chromosome aberrations, Assay Code: TRC+D, Dose Response: With dose response, Evaluation Type: Evaluation A (Pre-1980)); “active; positive” (Species/Cell Type: Tradescantia species, Assay Type: Gene mutation, Assay Code: TRM+D, Dose Response: With dose response, Evaluation Type: Evaluation A (Pre-1980)). In addition, the call under setting [3] is “active; positive”.
With `COC(=O)COc1ccc(Cl)cc1CSC(=N)N`, for the setting “Species/Cell Type: Saccharomyces cerevisiae, Assay Type: Reverse gene mutation, Assay Code: YERT, Evaluation Type: Evaluation A (Pre-1980)”, the mutagenic call is reported as “no conclusion”.
Consider `OCC1=C[C@H](N[C@H]2C[C@H](CO)[C@@H](O[C@@H]3O[C@H](CO)[C@@H](O)[C@H](O)[C@H]3O)[C@H](O)[C@H]2O)[C@H](O)[C@@H](O)[C@@H]1O`, for which, under setting [4], the mutagenic call is “inactive; negative”.
Turning to `O=C1OC2(c3ccccc31)c1cc(I)c(O)c(I)c1Oc1c2cc(I)c(O)c1I`, the mutagenic call was “inactive; negative” under setting [4]; “no conclusion” (Species/Cell Type: Bacillus subtilis (H17 vs M45T), Assay Type: Rec-assay, spot test, DNA effects (bacterial DNA repair), Assay Code: REXT, Evaluation Type: Evaluation A (Pre-1980)); “active; positive” (Species/Cell Type: Mammalian polychromatic erythrocytes, Assay Type: Micronucleus test, chromosome aberrations, Assay Code: MNT+, Evaluation Type: Evaluation B (Post-1980)); “inactive; negative” (Species/Cell Type: Saccharomyces cerevisiae, Assay Type: Mitotic recombination or gene conversion, Assay Code: YEC-, Evaluation Type: Evaluation A (Pre-1980)); “inactive; negative” (Species/Cell Type: Salmonella typhimurium (one or more of the five standard strains: TA98, TA100, TA1535, TA1537, and TA1538), Assay Type: Histidine reverse gene mutation, Ames assay, Assay Code: SAL-, Evaluation Type: Evaluation A (Pre-1980)).
As to `C[C@H](CCC(=O)O)[C@H]1CC[C@H]2[C@@H]3CC[C@@H]4C[C@H](OS(=O)(=O)O)CC[C@]4(C)[C@H]3CC[C@]12C`, under “Species/Cell Type: Syrian hamster embryo (SHE) cells, Assay Type: Cell transformation, clonal assay, Assay Code: CTC-, Evaluation Type: Evaluation A (Pre-1980)”, the mutagenic call is “inactive; negative”.
In the case of `Cc1cc(C)cc(O)c1`, the mutagenic call (Species/Cell Type: Allium cepa, Assay Type: Chromosome aberrations, Assay Code: ALCT, Evaluation Type: Evaluation A (Pre-1980)) is listed as “no conclusion”.
Regarding `Cc1cc2ccccc2c2ccc3c(F)cccc3c12`, under setting [5], the mutagenic call was “no conclusion”.
For the molecule `O=[N+]([O-])c1ccc(/C=C/c2cnc(N(CO)CO)nn2)o1`, the call under setting [3] is “active; positive”.
For `Nc1ccc(OCCO)c(N)c1`, the mutagenic call under setting [2] is “no conclusion”.
Turning to `ClC1=C(Cl)[C@]2(Cl)C3C(Cl)C(Cl)CC3[C@@]1(Cl)C2(Cl)Cl` (stereo not given in full), the mutagenic call under setting [6] was “active; positive”; the mutagenic call (Species/Cell Type: Rodents, Sex: Male, Assay Type: Dominant lethal test, Assay Code: DLTT, Evaluation Type: Evaluation A (Pre-1980)) is on record as “no conclusion”; the mutagenic call under setting [7] was “active; positive”. Further, under “Species/Cell Type: Nonhuman, Assay Code: CCG+L, Evaluation Type: Evaluation A (Pre-1980)”, the call is “active; positive”.
Regarding `O=C(NO)c1cc2ccccc2[nH]1`, under setting [8], the mutagenic call was “active; positive”.
As to `Cc1ccc2cc3c4c(ccc3c3c2c1CC3)C=C[C@H](O)[C@H]4O`, the mutagenic call is “active; positive” under setting [6]; “active; positive” (Species/Cell Type: Salmonella typhimurium (one or more of the five standard strains: TA98, TA100, TA1535, TA1537, and TA1538), Assay Type: Histidine reverse gene mutation, Ames assay, Assay Code: SAL+*, Activation: With metabolic activation, Evaluation Type: Evaluation A (Pre-1980)). Moreover, the call (Species/Cell Type: Nonhuman, Assay Code: CCGT, Evaluation Type: Evaluation A (Pre-1980)) is given as “no conclusion”.
In the case of `O[C@@H]1C=Cc2c(cc3ccc4cccc5ccc2c3c45)[C@@H]1O`, the mutagenic call under setting [5] is “no conclusion”.
With `CS(=O)(=O)OCCCl`, the mutagenic call is, setting by setting: under setting [9], “active; positive”; under setting [1], “active; positive”; (Species/Cell Type: Drosophila melanogaster, Sex: Male, Assay Type: Heritable translocation test, chromosome aberrations, Assay Code: DHT+, Evaluation Type: Evaluation A (Pre-1980)) “active; positive”; (Species/Cell Type: Vicia faba, Assay Type: Chromosome aberrations, Assay Code: VIC+D, Dose Response: With dose response, Evaluation Type: Evaluation A (Pre-1980)) “active; positive”.
Turning to `ClCCNCCNc1c2ccccc2nc2c1ccc1ccccc12`, the mutagenic call under setting [8] is “active; positive”.
Regarding `ClCc1ccccn1`, the call (Species/Cell Type: Nonhuman, Assay Code: CCG-L, Evaluation Type: Evaluation A (Pre-1980)) is “inactive; negative”.
For `Cc1cc(O)ccc1[N+](=O)[O-]`, where the note is “Species/Cell Type: Allium cepa, Assay Type: Chromosome aberrations, Assay Code: ALC+, Evaluation Type: Evaluation A (Pre-1980)”, the mutagenic call is “active; positive”.
On to `CCn1c(=O)n(C)c2c(=O)n(C)c(=O)n(C)c21`, for which the mutagenic call under setting [10] was “active; positive”.
Take `C1O[C@@H]1[C@H]1CO1`: the mutagenic call reads like this: under setting [10], “active; positive”; under setting [9], “active; positive”; (Species/Cell Type: Schizosaccharomyces pombe, Assay Type: Reverse gene mutation, Assay Code: YEZ+, Evaluation Type: Evaluation A (Pre-1980)) “active; positive”; under setting [7], “active; positive”.
